Measurements taken from ChEMBL document CHEMBL2390846, “Small-molecule pyrimidine inhibitors of the cdc2-like (Clk) and dual specificity tyrosine phosphorylation-regulated (Dyrk) kinases: development of chemical probe ML315” (Bioorg Med Chem Lett, 2013).

What was measured:
[1] = target: Dual specificity protein kinase CLK3 (Homo sapiens, UniProt P49761)
[2] = target: Dual specificity protein kinase CLK1 (Homo sapiens, UniProt P49759)
[3] = target: T1, Dual specificity tyrosine-phosphorylation-regulated kinase 1A (Homo sapiens, UniProt Q13627)
[4] = target: T2, Dual specificity protein kinase CLK4 (Homo sapiens, UniProt Q9HAZ1)
T2 sequence (Q9HAZ1 whole entry): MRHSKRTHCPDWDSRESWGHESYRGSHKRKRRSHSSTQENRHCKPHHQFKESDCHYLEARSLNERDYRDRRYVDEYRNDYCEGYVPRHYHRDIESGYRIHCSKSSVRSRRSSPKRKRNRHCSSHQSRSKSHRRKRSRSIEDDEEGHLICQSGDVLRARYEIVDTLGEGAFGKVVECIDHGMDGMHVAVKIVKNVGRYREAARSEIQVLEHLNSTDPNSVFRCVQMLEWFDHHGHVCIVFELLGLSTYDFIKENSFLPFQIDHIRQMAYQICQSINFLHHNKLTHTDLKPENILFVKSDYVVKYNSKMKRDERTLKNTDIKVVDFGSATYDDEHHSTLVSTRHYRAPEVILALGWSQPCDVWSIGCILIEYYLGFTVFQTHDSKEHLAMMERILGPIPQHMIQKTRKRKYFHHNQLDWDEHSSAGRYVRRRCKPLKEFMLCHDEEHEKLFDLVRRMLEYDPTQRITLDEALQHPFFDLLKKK

[5] = target: T2, Dual specificity protein kinase CLK4; experiment: Inhibition of CLK4 (unknown origin) by bioluminescence assay
[6] = target: T1, Dual specificity tyrosine-phosphorylation-regulated kinase 1A; experiment: Inhibition of DYRK1A (unknown origin) by bioluminescence assay
[7] = target: Dual specificity tyrosine-phosphorylation-regulated kinase 1B (Homo sapiens, UniProt Q9Y463)
Dual specificity tyrosine-phosphorylation-regulated kinase 1B, sequence (Q9Y463 whole entry): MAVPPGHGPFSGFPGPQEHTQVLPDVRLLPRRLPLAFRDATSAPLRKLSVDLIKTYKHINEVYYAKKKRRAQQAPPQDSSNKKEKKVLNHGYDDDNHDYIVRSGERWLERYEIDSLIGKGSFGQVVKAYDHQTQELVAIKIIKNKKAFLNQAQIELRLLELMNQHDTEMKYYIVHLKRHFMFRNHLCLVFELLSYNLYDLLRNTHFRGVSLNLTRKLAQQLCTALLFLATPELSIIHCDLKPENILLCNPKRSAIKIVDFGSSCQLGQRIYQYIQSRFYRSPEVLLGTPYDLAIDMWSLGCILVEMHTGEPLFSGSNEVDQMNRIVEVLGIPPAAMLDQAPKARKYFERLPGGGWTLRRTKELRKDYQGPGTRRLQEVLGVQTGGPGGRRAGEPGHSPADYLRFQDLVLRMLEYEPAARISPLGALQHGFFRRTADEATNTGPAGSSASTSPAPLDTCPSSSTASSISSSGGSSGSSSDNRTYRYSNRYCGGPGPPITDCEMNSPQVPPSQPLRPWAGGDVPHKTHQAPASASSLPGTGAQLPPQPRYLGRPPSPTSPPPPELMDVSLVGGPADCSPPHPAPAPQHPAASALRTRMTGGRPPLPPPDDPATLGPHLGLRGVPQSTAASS

[8] = target: Dual specificity protein kinase CLK2 (Homo sapiens, UniProt P49760)
Dual specificity protein kinase CLK2, sequence (P49760 whole entry): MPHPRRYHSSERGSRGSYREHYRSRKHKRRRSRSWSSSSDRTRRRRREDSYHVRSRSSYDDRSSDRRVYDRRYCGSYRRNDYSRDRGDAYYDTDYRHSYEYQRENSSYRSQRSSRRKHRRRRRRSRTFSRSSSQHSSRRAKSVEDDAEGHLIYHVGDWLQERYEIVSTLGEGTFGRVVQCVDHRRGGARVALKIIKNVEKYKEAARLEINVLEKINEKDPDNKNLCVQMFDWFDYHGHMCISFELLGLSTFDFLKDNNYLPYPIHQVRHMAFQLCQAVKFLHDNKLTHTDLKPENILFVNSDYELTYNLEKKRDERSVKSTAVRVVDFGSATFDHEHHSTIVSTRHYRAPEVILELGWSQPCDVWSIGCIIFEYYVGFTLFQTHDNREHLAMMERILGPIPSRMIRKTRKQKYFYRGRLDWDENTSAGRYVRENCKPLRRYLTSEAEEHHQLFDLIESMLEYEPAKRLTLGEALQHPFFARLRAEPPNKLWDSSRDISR

Dual specificity protein kinase CLK1, sequence (P49759 whole entry): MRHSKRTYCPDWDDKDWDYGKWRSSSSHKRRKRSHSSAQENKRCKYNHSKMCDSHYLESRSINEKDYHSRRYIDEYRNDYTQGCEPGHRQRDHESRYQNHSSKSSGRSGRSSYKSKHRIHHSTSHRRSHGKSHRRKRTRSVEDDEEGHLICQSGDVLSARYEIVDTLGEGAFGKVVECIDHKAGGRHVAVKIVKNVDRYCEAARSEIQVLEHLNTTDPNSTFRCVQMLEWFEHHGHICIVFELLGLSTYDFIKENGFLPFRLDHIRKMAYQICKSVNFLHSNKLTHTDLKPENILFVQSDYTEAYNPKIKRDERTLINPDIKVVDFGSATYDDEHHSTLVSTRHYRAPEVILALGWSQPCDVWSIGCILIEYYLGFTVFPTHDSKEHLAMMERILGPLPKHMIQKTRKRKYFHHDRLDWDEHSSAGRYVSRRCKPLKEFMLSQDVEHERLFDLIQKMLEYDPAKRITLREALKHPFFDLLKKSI
Dual specificity protein kinase CLK3, sequence (P49761 whole entry): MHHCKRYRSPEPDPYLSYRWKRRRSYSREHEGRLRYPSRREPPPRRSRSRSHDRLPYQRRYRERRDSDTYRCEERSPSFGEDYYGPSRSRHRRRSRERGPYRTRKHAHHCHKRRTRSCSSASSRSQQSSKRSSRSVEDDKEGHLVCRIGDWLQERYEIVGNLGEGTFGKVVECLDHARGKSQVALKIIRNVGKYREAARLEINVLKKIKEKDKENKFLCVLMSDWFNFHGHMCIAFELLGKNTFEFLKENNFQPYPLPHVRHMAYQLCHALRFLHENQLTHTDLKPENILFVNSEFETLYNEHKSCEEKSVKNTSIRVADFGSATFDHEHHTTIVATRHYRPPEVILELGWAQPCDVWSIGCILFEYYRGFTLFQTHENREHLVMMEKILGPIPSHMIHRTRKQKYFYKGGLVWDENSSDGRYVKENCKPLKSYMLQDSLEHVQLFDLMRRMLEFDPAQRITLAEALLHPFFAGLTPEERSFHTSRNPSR

SMILES	IC50 [1]	IC50 [2]	IC50 [3]	IC50 [4]	IC50 ([5]; read-out: IC50)	IC50 ([6]; read-out: IC50)	IC50 [7]	IC50 [8]	IC50 [6]	IC50 [5]
COc1ccc(-c2ccnc(NCc3ccc(Cl)cc3)n2)cc1		0.277 µM	0.558 µM	0.319 µM	0.29 µM	2.07 µM	0.871 µM	1.09 µM		
Clc1ccc(CNc2ncncc2-c2ccc3c(c2)OCO3)cc1		2.37 µM	4.58 µM	9.28 µM	5.82 µM	26 µM	8.86 µM	8.79 µM		
Clc1ccc(CNc2ccnc(-c3ccc4[nH]ncc4c3)n2)cc1Cl		1.78 µM	2.35 µM			4.63 µM	0.514 µM			
c1cncc(CNc2nccc(-c3ccc4[nH]ncc4c3)n2)c1	2.66 µM	0.073 µM	0.061 µM	0.06 µM	0.03 µM	0.15 µM	0.093 µM	0.462 µM		
COc1cccc(-c2ccnc(NCc3ccc(Cl)cc3)n2)c1		> 10 µM	6.36 µM	6.81 µM	5.82 µM	7.33 µM	6.78 µM	> 10 µM		
COc1ccc(-c2ncccn2)cc1					29.2 µM				Not Active	
c1cncc(CNc2nccc(-c3ccc4cn[nH]c4c3)n2)c1					0.04 µM	0.21 µM				
N#Cc1cccc(-c2ncccn2)c1					26 µM				Not Active	
Clc1ccc(CNc2ccnc(-c3ccc4c(c3)OCO4)n2)cc1					41.2 µM				Not Active	
FC(F)(F)c1cccc(Nc2nccc(-c3ccc4c(c3)OCO4)n2)c1	> 10 µM	0.034 µM	0.01 µM	0.042 µM	0.07 µM	0.07 µM	0.018 µM	0.052 µM		
Brc1cc(Br)cc(CNc2ccnc(-c3ccc4c(c3)OCO4)n2)c1					9.2 µM				Not Active	
Cc1ccc(CNc2ccnc(-c3cccnc3)n2)cc1					26 µM				Not Active	
Cc1noc(C)c1-c1ncccn1									Not Active	Not Active
Cc1ccc(CNc2ccnc(-c3ccc(N(C)C)cc3)n2)cc1									Not Active	Not Active
Cc1noc(C)c1-c1nccc(NCc2ccc(Cl)cc2)n1									Not Active	Not Active
c1cncc(CNc2ccnc(-c3ccc4cn[nH]c4c3)n2)c1		1.6 µM	1.43 µM	1.29 µM	0.29 µM	2.07 µM	0.829 µM	1.9 µM		
c1cncc(CNc2ccnc(-c3ccc4[nH]ncc4c3)n2)c1		0.964 µM	0.349 µM	0.574 µM	0.15 µM	0.65 µM	0.179 µM	0.665 µM		
CN(C)c1ccc(-c2nccc(NCc3ccc(Cl)cc3)n2)cc1									Not Active	Not Active
FC(F)(F)c1cc(Br)cc(Nc2nccc(-c3ccc4c(c3)OCO4)n2)c1		0.102 µM	0.107 µM	0.086 µM	0.13 µM	0.52 µM	0.137 µM	0.345 µM		
COc1ccc(CNc2ccnc(-c3ccc(N(C)C)cc3)n2)cc1									Not Active	Not Active
CN(C)c1ccc(-c2nccc(NCc3ccccc3)n2)cc1									Not Active	Not Active
COc1ccc(-c2nccc(NCc3ccc(Cl)c(Cl)c3)n2)cc1					14.6 µM				Not Active	
COc1ccc(CNc2ccnc(-c3ccc(OC)cc3)n2)cc1					36.8 µM				Not Active	
Cc1noc(C)c1-c1nccc(NCc2ccc(Cl)c(Cl)c2)n1									Not Active	Not Active
COc1ccc(-c2nccc(NCc3ccccc3)n2)cc1					29.2 µM				Not Active	
c1cncc(CNc2ncncc2-c2ccc3c(c2)OCO3)c1		4.8 µM	> 10 µM			26 µM	> 10 µM	> 10 µM		
c1cncc(CNc2cc(-c3ccc4c(c3)OCO4)ncn2)c1					6.54 µM	16.4 µM				

Further lines, results first:

IC50 [1]	IC50 [2]	IC50 [3]	IC50 [4]	IC50 ([5]; read-out: IC50)	IC50 ([6]; read-out: IC50)	IC50 [7]	IC50 [8]	IC50 [6]	IC50 [5]	SMILES
2.93 µM	0.041 µM	0.129 µM	0.03 µM	0.03 µM	0.33 µM	0.125 µM	0.19 µM			Clc1ccc(CNc2nccc(-c3ccc4[nH]ncc4c3)n2)cc1Cl
	0.183 µM	0.169 µM	0.123 µM	5.82 µM	1.64 µM	0.599 µM	0.429 µM			Clc1ccc(CNc2nccc(-c3ccc4cn[nH]c4c3)n2)cc1Cl
	0.18 µM	0.025 µM	0.075 µM	0.12 µM	0.13 µM	0.042 µM	0.259 µM			c1cc(-c2ccc3c(c2)OCO3)nc(Nc2ccc3c(c2)OCO3)n1
3.23 µM	0.024 µM	0.079 µM	0.018 µM	0.08 µM	0.82 µM	0.112 µM	0.03 µM			Brc1ccc(CNc2nccc(-c3ccc4c(c3)OCO4)n2)cc1Br
> 10 µM	0.016 µM	0.018 µM	0.013 µM	0.12 µM	0.21 µM	0.055 µM	0.039 µM			Clc1ccc(CNc2nccc(-c3ccc4c(c3)OCCO4)n2)cc1Cl
	1.26 µM	0.273 µM	5.45 µM	0.37 µM	0.52 µM	0.884 µM	> 10 µM			Clc1ccc(Nc2nccc(-c3ccc4c(c3)OCO4)n2)cc1
	0.013 µM	0.011 µM	0.009 µM	0.04 µM	0.07 µM	0.018 µM	0.041 µM			Brc1cc(Br)cc(CNc2nccc(-c3ccc4c(c3)OCO4)n2)c1
3.63 µM	0.008 µM	0.026 µM	0.014 µM	0.04 µM	0.16 µM	0.038 µM	0.02 µM			Clc1ccc(CNc2nccc(-c3ccc4c(c3)OCO4)n2)cc1Cl
	5.46 µM	4.65 µM	3.86 µM	3.68 µM	5.82 µM	> 10 µM	> 10 µM			COc1cccc(-c2ccnc(NCc3ccc(Cl)c(Cl)c3)n2)c1
				9.2 µM				Not Active		Brc1ccc(CNc2ccnc(-c3ccc4c(c3)OCO4)n2)cc1Br
	0.626 µM	3.45 µM	0.526 µM	0.58 µM	4.12 µM	> 10 µM	1.56 µM			Clc1ccc(CNc2ncncc2-c2ccc3c(c2)OCO3)cc1Cl
	0.076 µM	0.203 µM	0.092 µM	0.21 µM	1.16 µM	0.411 µM	0.409 µM			COc1ccc(-c2ccnc(NCc3ccc(Cl)c(Cl)c3)n2)cc1
> 10 µM	0.002 µM					0.007 µM	0.023 µM			Clc1cc(Cl)cc(CNc2nccc(-c3ccc4c(c3)OCO4)n2)c1
	> 10 µM		> 10 µM	26 µM	26 µM					COc1ccc(-c2ccnc(NCc3ccc(Cl)c(Cl)c3)n2)cc1OC
